Measured values as given in PubChem BioAssay (NCI).
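Values below derive from 48-hour exposures of cells grown in 96-well plates, with endpoints linearly interpolated between the two concentrations bracketing the appropriate inhibition level. Abbreviation: GI50, concentration required for 50% inhibition of growth. TGI: total growth inhibition.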

What was measured:
Experiment in all cases: inhibition of tumour cell growth, NCI panel, 48 h
SNB-75 CNS = system: SNB-75 CNS
SK-MEL-2 melanoma = system: SK-MEL-2 melanoma
CAKI-1 renal = system: CAKI-1 renal
EKVX NSCLC = system: EKVX NSCLC
UACC-62 melanoma = system: UACC-62 melanoma
HCT-116 colon = system: HCT-116 colon
SR leukemia = system: SR leukemia
HS 578T breast = system: HS 578T breast
SK-MEL-28 melanoma = system: SK-MEL-28 melanoma
T-47D breast = system: T-47D breast
MOLT-4 leukemia = system: MOLT-4 leukemia
OVCAR-4 ovarian = system: OVCAR-4 ovarian
OVCAR-5 ovarian = system: OVCAR-5 ovarian
HOP-92 NSCLC = system: HOP-92 NSCLC
NCI-H522 lung = system: NCI-H522 lung
SN12C renal = system: SN12C renal
SK-MEL-5 melanoma = system: SK-MEL-5 melanoma
DU-145 prostate = system: DU-145 prostate
UACC-257 melanoma = system: UACC-257 melanoma
BT-549 breast = system: BT-549 breast
MCF7 breast = system: MCF7 breast
MALME-3M melanoma = system: MALME-3M melanoma
SF-295 CNS = system: SF-295 CNS
RPMI-8226 leukemia = system: RPMI-8226 leukemia
HOP-62 NSCLC = system: HOP-62 NSCLC
U251 CNS = system: U251 CNS
786-0 renal = system: 786-0 renal
HCT-15 colon = system: HCT-15 colon
OVCAR-3 ovarian = system: OVCAR-3 ovarian
SK-OV-3 ovarian = system: SK-OV-3 ovarian
ACHN renal = system: ACHN renal
M14 melanoma = system: M14 melanoma
COLO 205 colon = system: COLO 205 colon
IGROV1 ovarian = system: IGROV1 ovarian
A498 renal = system: A498 renal
SF-539 CNS = system: SF-539 CNS
HCC-2998 colon = system: HCC-2998 colon
CCRF-CEM leukemia = system: CCRF-CEM leukemia
UO-31 renal = system: UO-31 renal
HL-60(TB) leukemia = system: HL-60(TB) leukemia
SW-620 colon = system: SW-620 colon
LOX IMVI melanoma = system: LOX IMVI melanoma
TK-10 renal = system: TK-10 renal
NCI-H23 lung = system: NCI-H23 lung
A549 NSCLC = system: A549 NSCLC
NCI/ADR-RES ovarian = system: NCI/ADR-RES ovarian
RXF 393 renal = system: RXF 393 renal
HT29 colon = system: HT29 colon
SF-268 CNS = system: SF-268 CNS
MDA-MB-435 = system: MDA-MB-435
NCI-H226 lung = system: NCI-H226 lung
NCI-H460 lung = system: NCI-H460 lung
SNB-19 CNS = system: SNB-19 CNS
KM12 colon = system: KM12 colon
PC-3 prostate = system: PC-3 prostate
OVCAR-8 ovarian = system: OVCAR-8 ovarian
K-562 leukemia = system: K-562 leukemia
MDA-MB-231 breast = system: MDA-MB-231 breast

## Oc1c(CN2CCOCC2)cc(COCc2ccccc2)c2cccnc12
SNB-75 CNS
  GI50: 10.4 µM
  TGI: > 100 µM
SK-MEL-2 melanoma
  GI50: 3.22 µM
  TGI: 59.1 µM
CAKI-1 renal
  GI50: 0.555 µM
  TGI: > 100 µM
EKVX NSCLC
  GI50: 2.88 µM
  TGI: > 100 µM
UACC-62 melanoma
  GI50: 2.24 µM
  TGI: 8.91 µM
HCT-116 colon
  GI50: 2.82 µM
  TGI: > 100 µM
SR leukemia
  GI50: 0.681 µM
  TGI: 17.9 µM
HS 578T breast
  GI50: 19.4 µM
  TGI: > 100 µM
SK-MEL-28 melanoma
  GI50: 2.79 µM
  TGI: > 100 µM
T-47D breast
  GI50: 2.63 µM
  TGI: > 100 µM
MOLT-4 leukemia
  GI50: 2.57 µM
  TGI: 17.7 µM
OVCAR-4 ovarian
  GI50: 1.97 µM
  TGI: > 100 µM
OVCAR-5 ovarian
  GI50: 5.08 µM
  TGI: > 100 µM
HOP-92 NSCLC
  GI50: 41.6 µM
  TGI: > 100 µM
NCI-H522 lung
  GI50: 1.79 µM
  TGI: 8.56 µM
SN12C renal
  GI50: 5.29 µM
  TGI: > 100 µM
SK-MEL-5 melanoma
  GI50: 2.03 µM
  TGI: 5.43 µM
DU-145 prostate
  GI50: 4.73 µM
  TGI: > 100 µM
UACC-257 melanoma
  GI50: 2.58 µM
  TGI: 7.84 µM
BT-549 breast
  GI50: 3.19 µM
  TGI: 81.8 µM
MCF7 breast
  GI50: 2.07 µM
  TGI: > 100 µM
MALME-3M melanoma
  GI50: 2.84 µM
  TGI: > 100 µM
SF-295 CNS
  GI50: 3.68 µM
  TGI: 30.6 µM
RPMI-8226 leukemia
  GI50: 4.06 µM
  TGI: > 100 µM
HOP-62 NSCLC
  GI50: 1.48 µM
  TGI: > 100 µM
U251 CNS
  GI50: 2.77 µM
  TGI: > 100 µM
786-0 renal
  GI50: 2.67 µM
  TGI: 19.2 µM
HCT-15 colon
  GI50: 0.286 µM
  TGI: 13.3 µM
OVCAR-3 ovarian
  GI50: 2.49 µM
  TGI: > 100 µM
SK-OV-3 ovarian
  GI50: 3 µM
  TGI: 22.2 µM
ACHN renal
  GI50: 0.571 µM
  TGI: > 100 µM
M14 melanoma
  GI50: 1.59 µM
  TGI: 7.84 µM
COLO 205 colon
  GI50: 16 µM
  TGI: 67.2 µM
IGROV1 ovarian
  GI50: 3.85 µM
  TGI: > 100 µM
A498 renal
  GI50: 16.5 µM
  TGI: > 100 µM
SF-539 CNS
  GI50: 2.24 µM
  TGI: 11.5 µM
HCC-2998 colon
  GI50: 3.28 µM
  TGI: > 100 µM
CCRF-CEM leukemia
  GI50: 0.494 µM
  TGI: > 100 µM
UO-31 renal
  GI50: 0.351 µM
  TGI: 9.36 µM
HL-60(TB) leukemia
  GI50: 2.38 µM
  TGI: 7.32 µM
SW-620 colon
  GI50: 3.61 µM
  TGI: > 100 µM
LOX IMVI melanoma
  GI50: 1.19 µM
  TGI: 10.4 µM
TK-10 renal
  GI50: 3.75 µM
  TGI: > 100 µM
NCI-H23 lung
  GI50: 3.25 µM
  TGI: > 100 µM
A549 NSCLC
  GI50: 4.22 µM
  TGI: 64 µM
NCI/ADR-RES ovarian
  GI50: 0.287 µM
  TGI: 1.88 µM
RXF 393 renal
  GI50: 3.25 µM
  TGI: 72.7 µM
HT29 colon
  GI50: 19.8 µM
  TGI: 65.4 µM
SF-268 CNS
  GI50: 1.95 µM
  TGI: > 100 µM
MDA-MB-435
  GI50: 6.5 µM
  TGI: > 100 µM
NCI-H226 lung
  GI50: 4.65 µM
  TGI: 36.8 µM
NCI-H460 lung
  GI50: 0.756 µM
  TGI: 53.3 µM
SNB-19 CNS
  GI50: 4.28 µM
  TGI: > 100 µM
KM12 colon
  GI50: 3.73 µM
  TGI: > 100 µM
PC-3 prostate
  GI50: 7.34 µM
  TGI: > 100 µM
OVCAR-8 ovarian
  GI50: 2.8 µM
  TGI: > 100 µM
K-562 leukemia
  GI50: 2.74 µM
  TGI: > 100 µM
MDA-MB-231 breast
  GI50: 6.48 µM
  TGI: > 100 µM
